Data from patent publication US20140120060A1, “TREATMENT OF RHEUMATOID ARTHRITIS AND ASTHMA USING PI3 KINASE INHIBITORS” (INFINITY PHARMACEUTICALS, INC., priority 2012, published 2014).

System: B cell
Assay: B cell proliferation
Format: cell-based

Row | Structure (SMILES) | EC50 [nM]
1 | Cc1cccc2cc(Cn3nc(-c4cccc(O)c4)c4c(N)ncnc43)n(C(C)C)c(=O)c12 [Compound 62] | < 100
2 | Cc1cccc2cc(Cn3nc(-c4cc(O)cc(F)c4)c4c(N)ncnc43)n(C3CCCC3)c(=O)c12 [Compound 63] | < 100
3 | Cc1cccc2cc(Cn3nc(-c4cc(O)cc(F)c4)c4c(N)ncnc43)n(C(C)C)c(=O)c12 [Compound 66] | < 100
4 | Cc1cccc2cc(Cn3nc(-c4ccc(F)c(O)c4)c4c(N)ncnc43)n(C(C)C)c(=O)c12 [Compound 67] | < 100
5 | Cc1cccnc1-n1c(Cn2nc(-c3ccc(F)c(O)c3)c3c(N)ncnc32)cc2cccc(C)c2c1=O [Compound 68] | < 100
6 | Cc1cccnc1-n1c(Cn2nc(C#C[C@@H](C)O)c3c(N)ncnc32)cc2cccc(C)c2c1=O [Compound 69] | < 1000
7 | COc1ccccc1-n1c(Cn2nc(I)c3c(N)ncnc32)cc2cccc(C)c2c1=O [Compound 70] | < 1000
8 | Cc1cccc2cc(Cn3nc(-c4ccc(Cl)c(O)c4)c4c(N)ncnc43)n(C3CCCC3)c(=O)c12 [Compound 71] | < 10000
9 | Cc1cccnc1-n1c(Cn2nc(-c3ccc(Cl)c(O)c3)c3c(N)ncnc32)cc2cccc(C)c2c1=O [Compound 72] | < 100
10 | Cc1cccnc1-n1c(Cn2nc(-c3cccc(O)c3)c3c(N)ncnc32)cc2cccc(C)c2c1=O [Compound 73] | < 100
11 | COc1ccccc1-n1c(Cn2nc(-c3cccc(O)c3)c3c(N)ncnc32)cc2cccc(C)c2c1=O [Compound 74] | < 100
12 | Cc1cccc2cc(Cn3nc(I)c4c(N)ncnc43)n(-c3ccccc3C(C)C)c(=O)c12 [Compound 75] | < 100
13 | Cc1cccc2cc(Cn3nc(I)c4c(N)ncnc43)n(-c3ccccc3Cl)c(=O)c12 [Compound 76] | < 1000
14 | CCc1ccccc1-n1c(Cn2nc(I)c3c(N)ncnc32)cc2cccc(C)c2c1=O [Compound 77] | < 1000
15 | Cc1ccncc1-n1c(Cn2nc(I)c3c(N)ncnc32)cc2cccc(C)c2c1=O [Compound 78] | < 1000
16 | Cc1cccc2cc(Cn3nc(I)c4c(N)ncnc43)n(-c3ccccc3O)c(=O)c12 [Compound 79] | < 1000
17 | COc1ccccc1-n1c(Cn2nc(C#C[C@@H](C)O)c3c(N)ncnc32)cc2cccc(C)c2c1=O [Compound 80] | < 1000
18 | Cc1cccc2cc(Cn3nc(-c4cccc(O)c4)c4c(N)ncnc43)n(-c3ccccc3O)c(=O)c12 [Compound 81] | < 100
19 | Cc1cccc2cc(Cn3nc(-c4cccc(O)c4)c4c(N)ncnc43)n(-c3ccccc3C(C)C)c(=O)c12 [Compound 82] | < 100
20 | Cc1cccc2cc(Cn3nc(C#C[C@@H](C)O)c4c(N)ncnc43)n(-c3ccccc3C(C)C)c(=O)c12 [Compound 83] | < 100
21 | COc1ccccc1-n1c(Cn2nc(-c3cc(O)cc(F)c3)c3c(N)ncnc32)cc2cccc(C)c2c1=O [Compound 84] | < 100
22 | Cc1ccccc1-n1c(Cn2nc(C#C[C@H](C)O)c3c(N)ncnc32)cc2cccc(C)c2c1=O [Compound 85] | < 1000
23 | Cc1cccc2cc(Cn3nc(I)c4c(N)ncnc43)n(C3CC3)c(=O)c12 [Compound 86] | < 1000
24 | Cc1cccc2cc(Cn3nc(I)c4c(N)ncnc43)n(C3CCCCC3)c(=O)c12 [Compound 87] | < 10000
25 | CCc1ccccc1-n1c(Cn2nc(-c3cccc(O)c3)c3c(N)ncnc32)cc2cccc(C)c2c1=O [Compound 88] | < 100

Row | Structure (SMILES) | EC50 [nM]
26 | CCc1ccccc1-n1c(Cn2nc(-c3cc(O)cc(F)c3)c3c(N)ncnc32)cc2cccc(C)c2c1=O [Compound 89] | < 100
27 | Cc1cccc2cc(Cn3nc(-c4cc(O)cc(F)c4)c4c(N)ncnc43)n(-c3ccccc3O)c(=O)c12 [Compound 90] | < 100
28 | Cc1cccc2cc(Cn3nc(C#C[C@@H](C)O)c4c(N)ncnc43)n(-c3ccccc3O)c(=O)c12 [Compound 91] | < 1000
29 | Cc1cccnc1-n1c(Cn2nc(-c3cc(O)cc(F)c3)c3c(N)ncnc32)cc2ccccc2c1=O [Compound 93] | < 100
30 | Cc1cccc2cc(Cn3nc(-c4cc(O)cc(F)c4)c4c(N)ncnc43)n(-c3ccccc3C(C)C)c(=O)c12 [Compound 95] | < 100
31 | Cc1cccc2cc(Cn3nc(-c4cccc(O)c4)c4c(N)ncnc43)n(-c3ccccc3Cl)c(=O)c12 [Compound 96] | < 100
32 | Cc1cccc2cc(Cn3nc(-c4cc(O)cc(F)c4)c4c(N)ncnc43)n(-c3ccccc3Cl)c(=O)c12 [Compound 97] | < 100
33 | Cc1cccc2cc(Cn3nc(C#C[C@@H](C)O)c4c(N)ncnc43)n(-c3ccccc3Cl)c(=O)c12 [Compound 98] | < 1000
34 | CCc1ccccc1-n1c(Cn2nc(C#C[C@@H](C)O)c3c(N)ncnc32)cc2cccc(C)c2c1=O [Compound 99] | < 100
35 | Cc1cccc2cc(Cn3nc(C#C[C@@H](C)O)c4c(N)ncnc43)n(C3CC3)c(=O)c12 [Compound 100] | < 1000
36 | Cc1cccc2cc(Cn3nc(-c4cc(O)cc(F)c4)c4c(N)ncnc43)n(C3CC3)c(=O)c12 [Compound 101] | < 100
37 | Cc1cccc2cc(Cn3nc(-c4cccc(O)c4)c4c(N)ncnc43)n(C3CC3)c(=O)c12 [Compound 102] | < 100
38 | Cc1cccc2cc(Cn3nc(I)c4c(N)ncnc43)n(-c3ccccc3OCCN3CCOCC3)c(=O)c12 [Compound 103] | < 1000
39 | Cc1cccc2cc(Cn3nc(I)c4c(N)ncnc43)n(C3CCC3)c(=O)c12 [Compound 105] | < 1000
40 | COc1cccc(-c2nn(Cc3cc4cccc(C)c4c(=O)n3-c3ccccc3C)c3ncnc(N)c23)c1 [Compound 106] | < 1000
41 | Cc1cccc2cc(Cn3nc(I)c4c(N)ncnc43)n(C)c(=O)c12 [Compound 107] | < 1000
42 | Cc1cccc2cc(Cn3nc(-c4cc(O)cc(F)c4)c4c(N)ncnc43)n(-c3ccccc3OCCN3CCOCC3)c(=O)c12 [Compound 108] | < 100
43 | Cc1cccc2cc(Cn3nc(-c4cccc(O)c4)c4c(N)ncnc43)n(-c3ccccc3OCCN3CCOCC3)c(=O)c12 [Compound 109] | < 100
44 | Cc1cccc2cc(Cn3nc(-c4cc(O)cc(F)c4)c4c(N)ncnc43)n(C3CCCCC3)c(=O)c12 [Compound 110] | < 1000
45 | Cc1cccc2cc(Cn3nc(-c4cccc(O)c4)c4c(N)ncnc43)n(C3CCCCC3)c(=O)c12 [Compound 111] | < 1000
46 | Cc1cccc2cc(Cn3nc(C#C[C@@H](C)O)c4c(N)ncnc43)n(C3CCCCC3)c(=O)c12 [Compound 112] | < 10000
47 | Cc1cccc2cc(Cn3nc(-c4cccc(O)c4)c4c(N)ncnc43)n(C3CCC3)c(=O)c12 [Compound 114] | < 1000
48 | Cc1cccc2cc(Cn3nc(-c4cc(O)cc(F)c4)c4c(N)ncnc43)n(C3CCC3)c(=O)c12 [Compound 115] | < 100
49 | Cc1ccccc1-n1c(Cn2nc(-c3cccc(O)c3)c3c(N)nccc32)cc2cccc(C)c2c1=O [Compound 119] | < 1000
50 | Cc1cccc2cc(Cn3nc(-c4ccc(Cl)c(O)c4)c4c(N)ncnc43)n(C(C)C)c(=O)c12 [Compound 123] | < 100

Row | Structure (SMILES) | EC50 [nM]
51 | Cc1cccc2cc(Cn3nc(-c4cccc(O)c4)c4c(N)ncnc43)n(C)c(=O)c12 [Compound 124] | < 1000
52 | Cc1cccc2cc(Cn3nc(-c4cc(O)cc(F)c4)c4c(N)ncnc43)n(C)c(=O)c12 [Compound 125] | < 100
53 | CCn1c(Cn2nc(-c3cccc(O)c3)c3c(N)ncnc32)cc2cccc(C)c2c1=O [Compound 126] | < 100
54 | Cc1cccc2cc(Cn3nc(-c4cc(O)cc(F)c4)c4c(N)ncnc43)n(C3CCOCC3)c(=O)c12 [Compound 128] | < 100
55 | CC(C)n1c(Cn2nc(-c3cccc(O)c3)c3c(N)ncnc32)cc2cccc(F)c2c1=O [Compound 133] | < 1000
56 | CC(C)n1c(Cn2nc(-c3cc(O)cc(F)c3)c3c(N)ncnc32)cc2cccc(F)c2c1=O [Compound 134] | < 100
57 | CC(C)n1c(Cn2nc(-c3cccc(O)c3)c3c(N)ncnc32)cc2ccccc2c1=O [Compound 135] | < 1000
58 | CC(C)n1c(Cn2nc(-c3cc(O)cc(F)c3)c3c(N)ncnc32)cc2ccccc2c1=O [Compound 136] | < 100
59 | CC(C)n1c(Cn2nc(-c3cccc(O)c3)c3c(N)ncnc32)cc2cccc(Cl)c2c1=O [Compound 137] | < 100
60 | CC(C)n1c(Cn2nc(-c3cc(O)cc(F)c3)c3c(N)ncnc32)cc2cccc(Cl)c2c1=O [Compound 138] | < 100
61 | Nc1ncnc2c1c(I)nn2Cc1cc2cccc(Cl)c2c(=O)n1C1CC1 [Compound 139] | < 100
62 | Nc1ncnc2c1c(-c1cccc(O)c1)nn2Cc1cc2cccc(Cl)c2c(=O)n1C1CC1 [Compound 141] | < 100
63 | Nc1ncnc2c1c(-c1cc(O)cc(F)c1)nn2Cc1cc2cccc(Cl)c2c(=O)n1C1CC1 [Compound 142] | < 100
64 | Nc1ncnc2c1c(-c1cc(O)cc(F)c1)nn2Cc1cc2cccc(F)c2c(=O)n1-c1ccccc1F [Compound 144] | < 100
65 | Cc1ccccc1-n1c(Cn2nc(-c3ccc4nc(N)sc4c3)c3c(N)ncnc32)cc2cccc(C)c2c1=O [Compound 145] | < 1000
66 | Cc1cccc2cc(Cn3nc(-c4cccc(O)c4)c4c(N)ncnc43)n(-c3ccccc3)c(=O)c12 [Compound 146] | < 100
67 | Cc1cccc2cc(Cn3nc(-c4cc(O)cc(F)c4)c4c(N)ncnc43)n(-c3ccccc3)c(=O)c12 [Compound 147] | < 100
68 | CNC(=O)Nc1nc2ccc(-c3nn(Cc4cc5cccc(C)c5c(=O)n4-c4ccccc4C)c4ncnc(N)c34)cc2s1 [Compound 148] | < 100
69 | Cc1ccccc1-n1c(Cn2nc(-c3ccc4nc(N)ccc4c3)c3c(N)ncnc32)cc2cccc(C)c2c1=O [Compound 149] | < 100
70 | Cc1ccccc1-n1c(Cn2nc(-c3ccc4nc(N)ncc4c3)c3c(N)ncnc32)cc2cccc(C)c2c1=O [Compound 150] | < 100
71 | Cc1ccccc1-n1c(Cn2nc(-c3ccc4oc(N)nc4c3)c3c(N)ncnc32)cc2cccc(C)c2c1=O [Compound 151] | < 100
72 | Cc1ccccc1-n1c(Cn2nc(-c3ccc4ncnc(N)c4c3)c3c(N)ncnc32)cc2cccc(C)c2c1=O [Compound 152] | < 1000
73 | CC(=O)Nc1nc2ccc(-c3nn(Cc4cc5cccc(C)c5c(=O)n4C)c4ncnc(N)c34)cc2s1 [Compound 153] | < 100
74 | CC(=O)Nc1nc2ccc(-c3nn(Cc4cc5cccc(C)c5c(=O)n4C(C)C)c4ncnc(N)c34)cc2s1 [Compound 154] | < 100
